From US5336485A, “Method for protecting animals against tacrine induced cytotoxic injury using sterol compounds” (priority 1993, dated 1994)

Tests used:
rat hepatocytes [1] = assay: EMS-induced cytotoxicity (LDH leakage/cell death) in rat hepatocyte suspensions; conditions: Rattus norvegicus, Hepatocyte, 5 h, read-out: Percent Cytoprotection, 25 μM, 50 mM EMS, 5 h
male Sprague-Dawley rats = assay: CCl4 induced lethality in rats; format: in vivo, rat
rat hepatocytes [2] = assay: ATP content of rat hepatocyte suspensions; format: cell-based; conditions: 25 μM
From the text: It is well known that the succinate molecule is utilized by the cell to produce ATP energy. In the tricarboxylic acid cycle, succinate is oxidized by succinate dehydrogenase to produce ATP. Oxidation occurs in the mitochondria and the mitochondria can utilize both succinate formed in the mitochondria or succinate transported to the mitochondria. Increasing ATP production may enhance cellular repair processes as well as normal metabolic processes. For example, the cell's ability to remove free intracellular Ca^2+ during a toxic insult is related to ATP production. Succinate administration stimulates gluconeogenesis to form glucose 6-phosphate which is used for producing energy anaerobically (ATP formation through glycolysis) and for producing reducing equivalents (NADPH formation through the hexose monophosphate shunt needed for lipid and nucleotide biosynthesis and other biosynthetic reductions and enzymatic reactions, e.g., glutathione reductase). An in vitro experiment was conducted to determine the relationship between the release of succinate from alpha-TS and the cellular ATP level. The experiment was performed by incubating a tocopherol analog in a rat hepatocyte suspension and measuring the ATP level at the beginning and end of the test.
Rat hepatocyte suspensions were subjected to 50 mM EMS and the percentage of cell death, the percentage of intracellular K^+ (a metabolic parameter as discussed above), the depletion of ATP and the effect on lipid peroxidation were monitored.

L1210 leukemia cells = conditions: mouse, in vivo
[3] = tested on: gluconeogenesis or ATP production; conditions: cited from earlier work
[4] = tested on: isolated rat liver mitochondria; conditions: 6 mM succinate; cited from earlier work
rat = conditions: in vivo, ip, 100 mg/kg
Experimental: The duration of pentobarbitone-induced sleeping time is directly dependent on the metabolism of pentobarbitone in the liver.
^a Rats are pretreated, with the compounds listed, 20 hours prior to

Row | SMILES | inhibition at 25 µM (rat hepatocytes [1]) [%] | Survival after CCl4 treatment (male Sprague-Dawley rats; 100 mg/kg ip 24 h prior, […] CCl4 oral) | Days Survived After CCl4 Treatment (male Sprague-Dawley rats; 100 mg/kg, single dose 24 h prior, CCl4 […]) [days] | cytoprotection (Table 7, in words) (male Sprague-Dawley rats; rat, in vivo) | Rate of ATP Depletion (rat hepatocytes [2]) [nmoles/10^6 cell/hr] | Cellular ATP (rat hepatocytes [2]; 0 Hr) [nmoles/10^6 cells] | Cellular ATP (rat hepatocytes [2]; 6 Hr) [nmoles/10^6 cells] | Survival time (footnote) (L1210 leukemia cells) | concentration required to stimulate gluconeogenesis or ATP production [3] | increase of Ca2+ capacity and Ca2+ retention of mitochondria [4] | Sleeping Time (rat) [min]
1 | O=C(O)CCC(=O)O [Succinic Acid, reference compound] | 0 | No | 2 | not cytoprotective | 1.8 ± 0.2 | 15.7 ± 1.3 | 4.9 ± 0.6 | identical for succinate and vehicle treated | Millimolar concentrations | five to seven | –
2 | CC(C)(C(=O)c1cccnc1)c1cccnc1 [Metyrapone] | – | – | – | – | – | – | – | – | – | – | 900 ± 120
